# Reference: patent publication US20130209543A1, “ENHANCED TREATMENT REGIMENS USING MTOR INHIBITORS” (Intellikine LLC, priority 2011, published 2013)
# Columns and labels:
# [1] = test system: TORC1 (p4EBP1 and pS6) and TORC2 (pPRAS40); test: Human skin immunohistochemistry assay (skin biopsies, pathway inhibition); assay type: in vivo; conditions: 6 mg QD, read-out: PD (% inhibition, H score) Skin: 4EBP1/PRAS40
# Method: Human Skin Immunohistochemistry Assay.
# Skin tissue was fixed in 10% neutral-buffered formalin solution for 24 hours and then processed and embedded in paraffin block. Sections (4 μm) were cut and mounted onto microscopic slides. Sections were incubated with primary antibodies (p4EBP1, pS6, or pRAS40) overnight and developed using a chromogenic substrate.
# Pharmacodynamic (PD) endpoints were evaluated in surrogate (peripheral blood cells [PBCs], skin) and tumor tissues for the phosphorylation of TORC1-dependent markers (4EBP1/S6), and TORC2-dependent markers (AKT/PRAS40). 50 patients were treated in 3 intermittent dosing regimens; 21 in 6 cohorts ranging 7-40 mg QW, 20 in 5 cohorts ranging 6-20 mg QD×3d QW, and 9 in 3 cohorts ranging 7-13 mg QD×5d QW. […] The MTD for intermittent dosing was not reached. All adverse events (AEs) reported were reversible. The most common (≧20%, n=35) AEs considered possibly related to compound A reported in all 3 dosing regimens included nausea (51%), hyperglycemia (37%), mucosal inflammation (29%), rash (23%), asthenia (23%), vomiting (26%), and diarrhea (20%). The majority of AEs considered possibly related to compound A in any regimen were Grade 1 or 2. The only reported Grade≧3 AE (≧5%) possibly related to compound A in 3 regimens was lymphopenia (6%). Tables 4-9 show summaries of observed adverse events for various treatment regimens of the invention.
# [2] = Additional study: grade 3 or greater treatment-emergent adverse events (Table 10); assay type: in vivo, human
smiles,measurement,setting,value
CC(C)n1nc(-c2ccc3oc(N)nc3c2)c2c(N)ncnc21 [compound A],inhibition at 6 mg,[1],60%
same,"Anaemia, grade 3 or greater TEAE",[2]; Total (N = 91),6 (7%)
same,"Aspartate aminotransferase increase, grade 3 or greater TEAE",[2]; Total (N = 91),2 (2%)
same,"Asthenia, grade 3 or greater TEAE",[2]; Total (N = 91),4 (4%)
same,"Blood creatinine increase, grade 3 or greater TEAE",[2]; Total (N = 91),2 (2%)
same,"Deep vein thrombosis, grade 3 or greater TEAE",[2]; Total (N = 91),2 (2%)
same,"Diarrhoea, grade 3 or greater TEAE",[2]; Total (N = 91),3 (3%)
same,"Disease progression, grade 3 or greater TEAE",[2]; Total (N = 91),2 (2%)
same,"Fatigue, grade 3 or greater TEAE",[2]; Total (N = 91),3 (3%)
same,"Gamma-glutamyltransferase increase, grade 3 or greater TEAE",[2]; Total (N = 91),3 (3%)
same,"Hyperglycaemia, grade 3 or greater TEAE",[2]; Total (N = 91),9 (10%)
same,"Hypokalaemia, grade 3 or greater TEAE",[2]; Total (N = 91),3 (3%)
same,"Hyponatraemia, grade 3 or greater TEAE",[2]; Total (N = 91),2 (2%)
same,"Hypophsphataemia, grade 3 or greater TEAE",[2]; Total (N = 91),5 (5%)
same,"Lymphopenia, grade 3 or greater TEAE",[2]; Total (N = 91),6 (7%)
same,"Mucosal Inflammation, grade 3 or greater TEAE",[2]; Total (N = 91),7 (8%)
same,"Muscular weakness, grade 3 or greater TEAE",[2]; Total (N = 91),2 (2%)
same,"Nausea, grade 3 or greater TEAE",[2]; Total (N = 91),2 (2%)
same,"Neutropenia, grade 3 or greater TEAE",[2]; Total (N = 91),2 (2%)
same,"Pruritus, grade 3 or greater TEAE",[2]; Total (N = 91),3 (3%)
same,"Rash, grade 3 or greater TEAE",[2]; Total (N = 91),9 (10%)
same,"Thrombocytopenia, grade 3 or greater TEAE",[2]; Total (N = 91),2 (2%)
same,"Vomiting, grade 3 or greater TEAE",[2]; Total (N = 91),3 (3%)
same,"Anaemia, grade 3 or greater TEAE",[2]; Total QD Dosing (N = 29),1 (3%)
same,"Aspartate aminotransferase increase, grade 3 or greater TEAE",[2]; Total QD Dosing (N = 29),0 (0%)
same,"Asthenia, grade 3 or greater TEAE",[2]; Total QD Dosing (N = 29),1 (3%)
same,"Blood creatinine increase, grade 3 or greater TEAE",[2]; Total QD Dosing (N = 29),0 (0%)
same,"Deep vein thrombosis, grade 3 or greater TEAE",[2]; Total QD Dosing (N = 29),0 (0%)
same,"Diarrhoea, grade 3 or greater TEAE",[2]; Total QD Dosing (N = 29),1 (3%)
same,"Disease progression, grade 3 or greater TEAE",[2]; Total QD Dosing (N = 29),0 (0%)
same,"Fatigue, grade 3 or greater TEAE",[2]; Total QD Dosing (N = 29),0 (0%)
same,"Gamma-glutamyltransferase increase, grade 3 or greater TEAE",[2]; Total QD Dosing (N = 29),0 (0%)
same,"Hyperglycaemia, grade 3 or greater TEAE",[2]; Total QD Dosing (N = 29),4 (14%)
same,"Hypokalaemia, grade 3 or greater TEAE",[2]; Total QD Dosing (N = 29),2 (7%)
same,"Hyponatraemia, grade 3 or greater TEAE",[2]; Total QD Dosing (N = 29),2 (7%)
same,"Hypophsphataemia, grade 3 or greater TEAE",[2]; Total QD Dosing (N = 29),0 (0%)
same,"Lymphopenia, grade 3 or greater TEAE",[2]; Total QD Dosing (N = 29),2 (7%)
same,"Mucosal Inflammation, grade 3 or greater TEAE",[2]; Total QD Dosing (N = 29),0 (0%)
same,"Muscular weakness, grade 3 or greater TEAE",[2]; Total QD Dosing (N = 29),0 (0%)
same,"Nausea, grade 3 or greater TEAE",[2]; Total QD Dosing (N = 29),0 (0%)
same,"Neutropenia, grade 3 or greater TEAE",[2]; Total QD Dosing (N = 29),0 (0%)
same,"Pruritus, grade 3 or greater TEAE",[2]; Total QD Dosing (N = 29),2 (7%)
same,"Rash, grade 3 or greater TEAE",[2]; Total QD Dosing (N = 29),7 (24%)
same,"Thrombocytopenia, grade 3 or greater TEAE",[2]; Total QD Dosing (N = 29),2 (7%)
same,"Vomiting, grade 3 or greater TEAE",[2]; Total QD Dosing (N = 29),0 (0%)
same,"Anaemia, grade 3 or greater TEAE",[2]; Total QDx3d QW (N = 25),2 (8%)
same,"Aspartate aminotransferase increase, grade 3 or greater TEAE",[2]; Total QDx3d QW (N = 25),0 (0%)
same,"Asthenia, grade 3 or greater TEAE",[2]; Total QDx3d QW (N = 25),1 (4%)
same,"Blood creatinine increase, grade 3 or greater TEAE",[2]; Total QDx3d QW (N = 25),2 (8%)
same,"Deep vein thrombosis, grade 3 or greater TEAE",[2]; Total QDx3d QW (N = 25),1 (4%)
same,"Diarrhoea, grade 3 or greater TEAE",[2]; Total QDx3d QW (N = 25),1 (4%)
same,"Disease progression, grade 3 or greater TEAE",[2]; Total QDx3d QW (N = 25),0 (0%)
same,"Fatigue, grade 3 or greater TEAE",[2]; Total QDx3d QW (N = 25),0 (0%)
same,"Gamma-glutamyltransferase increase, grade 3 or greater TEAE",[2]; Total QDx3d QW (N = 25),1 (4%)
same,"Hyperglycaemia, grade 3 or greater TEAE",[2]; Total QDx3d QW (N = 25),4 (16%)
same,"Hypokalaemia, grade 3 or greater TEAE",[2]; Total QDx3d QW (N = 25),0 (0%)
same,"Hyponatraemia, grade 3 or greater TEAE",[2]; Total QDx3d QW (N = 25),0 (0%)
same,"Hypophsphataemia, grade 3 or greater TEAE",[2]; Total QDx3d QW (N = 25),3 (12%)
same,"Lymphopenia, grade 3 or greater TEAE",[2]; Total QDx3d QW (N = 25),2 (8%)
same,"Mucosal Inflammation, grade 3 or greater TEAE",[2]; Total QDx3d QW (N = 25),4 (16%)
same,"Muscular weakness, grade 3 or greater TEAE",[2]; Total QDx3d QW (N = 25),1 (4%)
same,"Nausea, grade 3 or greater TEAE",[2]; Total QDx3d QW (N = 25),1 (4%)
same,"Neutropenia, grade 3 or greater TEAE",[2]; Total QDx3d QW (N = 25),0 (0%)
same,"Pruritus, grade 3 or greater TEAE",[2]; Total QDx3d QW (N = 25),1 (4%)
same,"Rash, grade 3 or greater TEAE",[2]; Total QDx3d QW (N = 25),1 (4%)
same,"Thrombocytopenia, grade 3 or greater TEAE",[2]; Total QDx3d QW (N = 25),0 (0%)
same,"Vomiting, grade 3 or greater TEAE",[2]; Total QDx3d QW (N = 25),1 (4%)
same,"Anaemia, grade 3 or greater TEAE",[2]; Total QDx5d QW (N = 15),1 (7%)
same,"Aspartate aminotransferase increase, grade 3 or greater TEAE",[2]; Total QDx5d QW (N = 15),1 (7%)
same,"Asthenia, grade 3 or greater TEAE",[2]; Total QDx5d QW (N = 15),1 (7%)
same,"Blood creatinine increase, grade 3 or greater TEAE",[2]; Total QDx5d QW (N = 15),0 (0%)
same,"Deep vein thrombosis, grade 3 or greater TEAE",[2]; Total QDx5d QW (N = 15),0 (0%)
same,"Diarrhoea, grade 3 or greater TEAE",[2]; Total QDx5d QW (N = 15),0 (0%)
same,"Disease progression, grade 3 or greater TEAE",[2]; Total QDx5d QW (N = 15),0 (0%)
same,"Fatigue, grade 3 or greater TEAE",[2]; Total QDx5d QW (N = 15),2 (13%)
same,"Gamma-glutamyltransferase increase, grade 3 or greater TEAE",[2]; Total QDx5d QW (N = 15),1 (7%)
same,"Hyperglycaemia, grade 3 or greater TEAE",[2]; Total QDx5d QW (N = 15),1 (7%)
same,"Hypokalaemia, grade 3 or greater TEAE",[2]; Total QDx5d QW (N = 15),0 (0%)
same,"Hyponatraemia, grade 3 or greater TEAE",[2]; Total QDx5d QW (N = 15),0 (0%)
same,"Hypophsphataemia, grade 3 or greater TEAE",[2]; Total QDx5d QW (N = 15),2 (13%)
same,"Lymphopenia, grade 3 or greater TEAE",[2]; Total QDx5d QW (N = 15),1 (7%)
same,"Mucosal Inflammation, grade 3 or greater TEAE",[2]; Total QDx5d QW (N = 15),3 (20%)
same,"Muscular weakness, grade 3 or greater TEAE",[2]; Total QDx5d QW (N = 15),0 (0%)
same,"Nausea, grade 3 or greater TEAE",[2]; Total QDx5d QW (N = 15),1 (7%)
same,"Neutropenia, grade 3 or greater TEAE",[2]; Total QDx5d QW (N = 15),1 (7%)
same,"Pruritus, grade 3 or greater TEAE",[2]; Total QDx5d QW (N = 15),0 (0%)
same,"Rash, grade 3 or greater TEAE",[2]; Total QDx5d QW (N = 15),1 (7%)
same,"Thrombocytopenia, grade 3 or greater TEAE",[2]; Total QDx5d QW (N = 15),0 (0%)
same,"Vomiting, grade 3 or greater TEAE",[2]; Total QDx5d QW (N = 15),1 (7%)
same,"Anaemia, grade 3 or greater TEAE",[2]; Total QW Dosing (N = 22),2 (9%)
same,"Aspartate aminotransferase increase, grade 3 or greater TEAE",[2]; Total QW Dosing (N = 22),1 (5%)
same,"Asthenia, grade 3 or greater TEAE",[2]; Total QW Dosing (N = 22),1 (5%)
same,"Blood creatinine increase, grade 3 or greater TEAE",[2]; Total QW Dosing (N = 22),0 (0%)
same,"Deep vein thrombosis, grade 3 or greater TEAE",[2]; Total QW Dosing (N = 22),1 (5%)
same,"Diarrhoea, grade 3 or greater TEAE",[2]; Total QW Dosing (N = 22),1 (5%)
same,"Disease progression, grade 3 or greater TEAE",[2]; Total QW Dosing (N = 22),2 (9%)
same,"Fatigue, grade 3 or greater TEAE",[2]; Total QW Dosing (N = 22),1 (5%)
same,"Gamma-glutamyltransferase increase, grade 3 or greater TEAE",[2]; Total QW Dosing (N = 22),1 (5%)
same,"Hyperglycaemia, grade 3 or greater TEAE",[2]; Total QW Dosing (N = 22),0 (0%)
same,"Hypokalaemia, grade 3 or greater TEAE",[2]; Total QW Dosing (N = 22),1 (5%)
same,"Hyponatraemia, grade 3 or greater TEAE",[2]; Total QW Dosing (N = 22),0 (0%)
same,"Hypophsphataemia, grade 3 or greater TEAE",[2]; Total QW Dosing (N = 22),0 (0%)
same,"Lymphopenia, grade 3 or greater TEAE",[2]; Total QW Dosing (N = 22),1 (5%)
same,"Mucosal Inflammation, grade 3 or greater TEAE",[2]; Total QW Dosing (N = 22),0 (0%)
same,"Muscular weakness, grade 3 or greater TEAE",[2]; Total QW Dosing (N = 22),1 (5%)
same,"Nausea, grade 3 or greater TEAE",[2]; Total QW Dosing (N = 22),0 (0%)
same,"Neutropenia, grade 3 or greater TEAE",[2]; Total QW Dosing (N = 22),1 (5%)
same,"Pruritus, grade 3 or greater TEAE",[2]; Total QW Dosing (N = 22),0 (0%)
same,"Rash, grade 3 or greater TEAE",[2]; Total QW Dosing (N = 22),0 (0%)
same,"Thrombocytopenia, grade 3 or greater TEAE",[2]; Total QW Dosing (N = 22),0 (0%)
same,"Vomiting, grade 3 or greater TEAE",[2]; Total QW Dosing (N = 22),1 (5%)
